Data on 17 compounds can be found in ChEMBL document CHEMBL2311342, “Inhibitors of the Yersinia protein tyrosine phosphatase through high throughput and virtual screening approaches” (Bioorg Med Chem Lett, 2013).

One may read the IC50 as the concentration at which inhibition is half-maximal. High values mean weaker potency, low ones greater potency.

The experiment can be described thus: Inhibition of Yersinia pestis YopH catalytic domain (residues 163-468) using pNPP substrate.
`O=C1NC(=O)C(=Cc2ccc(OCc3ccc([N+](=O)[O-])cc3)c(Br)c2)C(=O)N1` yielded an IC50 of 1.89 µM. In other words, the single-digit micromolar range. On to `Cn1nc(-c2cccs2)nc2c(=O)n(C)c(=O)nc1-2`, for which half-maximal inhibition (IC50) was put at 0.88 µM.

As to `Cn1nc(-c2ccc(Cl)cc2)nc2c(=O)n(C)c(=O)nc1-2`, half-maximal inhibition (IC50) was put at 1.28 µM. `O=C(O)c1ccc(N2C(=O)c3ccc(-c4nc5ccccc5c(=O)o4)cc3C2=O)cc1` gave an IC50 of 1.92 µM. The compound `NC(=S)N1N=C(c2ccc([N+](=O)[O-])cc2)/C(=N\Nc2ccc(S(=O)(=O)O)cc2)C1=O` returned an IC50 of 4.61 µM. With `O=C1NC(=S)NC(=O)C1=Cc1ccc(N2CCc3ccccc3C2)c([N+](=O)[O-])c1` the figure was 4.73 µM.

`CCCCN1C(=O)/C(=C2\SC(N3CCC(C(N)=O)CC3)=NC2=O)c2ccccc21` had an IC50 of 1.68 µM. For the compound `Cc1c(N=c2c(=O)c3ccccc3c2=O)c(=O)n(-c2ccccc2)n1C`, the IC50 is 4.01 µM. Under `CN1C(=O)C(=Cc2ccc(OCc3c(F)cccc3Cl)cc2)C(=O)N(C)C1=O` stands 9.89 µM; under `Cc1c(/C(=N/OC(=O)c2ccc(F)cc2)C(F)(F)F)cc(-c2ccc(S(C)(=O)=O)cc2)n1-c1ccc(F)cc1`, 2.35 µM; under `O=C1OC(c2ccc(Cl)cc2)=N/C1=C/Nc1ccc(O)c(C(=O)O)c1`, 8.1 µM. The compound `O=C(O)c1cc(-c2ccc(/C=N/Nc3nc4nonc4nc3Nc3ccc(F)cc3)o2)ccc1O` gave an IC50 of 0.38 µM. Compound `O=C(O)c1ccc(-c2nc(-c3ccc(-c4ccccc4)cc3)c(-c3ccc(-c4ccccc4)cc3)[nH]2)cc1` registered an IC50 of 2.15 µM. In turn, `CN1C(=O)C(=Cc2cn(Cc3cnc(Cl)s3)c3ccccc23)C(=O)N(C)C1=O` registered an IC50 of 4.61 µM. `O=C1Nc2ccc(Br)cc2/C1=C1/SC(=S)N(c2cccc(C(F)(F)F)c2)C1=O` showed an IC50 of 1.22 µM. For `O=C(COc1ccccc1)N1CCN(S(=O)(=O)c2ccccc2[N+](=O)[O-])CC1`, the IC50 was 0.98 µM. With `COc1cc(/C=C2/N=C(c3ccc(Cl)c(Cl)c3)OC2=O)cc(OC)c1OC` the figure was 4.48 µM.
